Results reported in US20160185774A1, “Anti-Infective Compounds” (priority 2013, published 2016).

What was measured:
[1] = system: M. tuberculosis; assay: microbe, parasite or virus in culture; type: cell-based; settings: Mycobacterium tuberculosis, 120 h; read-out: QUM (MIC80)
[2] = system: M. tuberculosis H37Rv; assay: In vivo activity in a murine model of acute tuberculosis infection (lung CFU); settings: 50 mg/kg orally once daily, 3 days of treatment starting at day 6, female BalbC mice
Procedure: The effect of compounds 171 and 175 on the bacterial load of TB-infected mice was compared to that of the reference compound Isoniazid (INH). 8-week old female BalbC mice were infected with 8×10^6 M. tuberculosis H37Rv via intranasal inoculation. Mice were sacrificed at day 1 to control the number of CFU in the lungs. In the acute model of infection, mice were treated for 3 days, starting at day 6. Compounds were freshly dissolved in a 20% d-α-tocopheryl polyethylene glycol 1000 succinate (ETPGS) solution and administered by oral gavage as single dose per day. Bacterial load was assessed in lungs after homogenizing the organs in 1×PBS. Serial dilutions of organs homogenates were spread on Middlebrook 7H11 plates and CFU were determined after 3 weeks incubation at 37° C. under 5% CO2.

## CCc1nc2cc(C)ccn2c1C(=O)NCc1ccc(N2CCC(c3ccc(OC(F)(F)F)cc3)CC2)cc1 [Compound 171]
[1]
  MIC80: < 1 µM
[2]
  CFU in the lungs compared to untreated mice: reduction of CFU compared to untreated mice

## CCc1nc2cc(F)ccn2c1C(=O)NCc1ccc(N2CCC(c3ccc(OC(F)(F)F)cc3)CC2)cc1 [Compound 175]
[1]
  MIC80: < 1 µM
[2]
  CFU in the lungs compared to untreated mice: reduction of CFU compared to untreated mice

## CCc1nc2ccc(Cl)cn2c1C(=O)NCc1ccc(N(C)c2ccc(OC(F)(F)F)cc2)cc1 [Compound 286]
[1]
  MIC80: < 1 µM
other
  melting point: 138 °C

## CCc1nc2cc(Cl)ccn2c1C(=O)NCc1ccc(N(C)c2ccc(OC(F)(F)F)cc2)cc1 [Compound 287]
[1]
  MIC80: < 1 µM
other
  melting point: 134 °C

## CCc1nc2ccccn2c1C(=O)NCc1ccc(N(C)c2ccc(OC(F)(F)F)cc2)cc1 [Compound 288]
[1]
  MIC80: < 1 µM
other
  melting point: 120 °C

## COc1ccc2nc(C)c(C(=O)NCc3ccc(N4CCC(c5ccc(F)cc5)CC4)cc3)n2c1 [Compound 289]
[1]
  MIC80: < 1 µM
other
  melting point: 192 °C

## COc1ccc2nc(C)c(C(=O)NCc3ccc(N4CCC(c5ccc(C)cc5)CC4)cc3)n2c1 [Compound 290]
[1]
  MIC80: < 1 µM
other
  melting point: 178 °C

## COc1ccc2nc(C)c(C(=O)NCc3ccc(N4CCC(c5ccc(C(F)(F)F)cc5)CC4)cc3)n2c1 [Compound 291]
[1]
  MIC80: < 1 µM
other
  melting point: 207 °C

## COc1ccc2nc(C)c(C(=O)NCc3ccc(N4CCC(c5ccc(OC(F)(F)F)cc5)CC4)cc3)n2c1 [Compound 292]
[1]
  MIC80: < 1 µM
other
  melting point: 183 °C

## Cc1ccc2nc(C)c(C(=O)NCc3ccc(N4CCC(c5ccc(F)cc5)CC4)cc3)n2c1 [Compound 293]
[1]
  MIC80: < 1 µM
other
  melting point: 181 °C

## Cc1ccc2nc(C)c(C(=O)NCc3ccc(N4CCC(c5ccc(Cl)cc5)CC4)cc3)n2c1 [Compound 294]
[1]
  MIC80: < 1 µM
other
  melting point: 188 °C

## COc1ccc(C2CCN(c3ccc(CNC(=O)c4c(C)nc5ccc(C)cn45)cc3)CC2)cc1 [Compound 295]
[1]
  MIC80: < 1 µM
other
  melting point: 184 °C

## Cc1ccc2nc(C)c(C(=O)NCc3ccc(N4CCC(c5ccc(OC(F)(F)F)cc5)CC4)cc3)n2c1 [Compound 296]
[1]
  MIC80: < 1 µM
other
  melting point: 184 °C
